Test results from ChEMBL document CHEMBL1142678, “Discovery and structure-activity relationship of quinuclidine benzamides as agonists of alpha7 nicotinic acetylcholine receptors” (J Med Chem, 2005).

biological target: Neuronal acetylcholine receptor; alpha3/beta4 (Homo sapiens, UniProt P30926+P32297); assay: Antagonistic activity against Nicotinic acetylcholine receptor alpha3-beta4; type: functional
Sequence (P30926 whole entry): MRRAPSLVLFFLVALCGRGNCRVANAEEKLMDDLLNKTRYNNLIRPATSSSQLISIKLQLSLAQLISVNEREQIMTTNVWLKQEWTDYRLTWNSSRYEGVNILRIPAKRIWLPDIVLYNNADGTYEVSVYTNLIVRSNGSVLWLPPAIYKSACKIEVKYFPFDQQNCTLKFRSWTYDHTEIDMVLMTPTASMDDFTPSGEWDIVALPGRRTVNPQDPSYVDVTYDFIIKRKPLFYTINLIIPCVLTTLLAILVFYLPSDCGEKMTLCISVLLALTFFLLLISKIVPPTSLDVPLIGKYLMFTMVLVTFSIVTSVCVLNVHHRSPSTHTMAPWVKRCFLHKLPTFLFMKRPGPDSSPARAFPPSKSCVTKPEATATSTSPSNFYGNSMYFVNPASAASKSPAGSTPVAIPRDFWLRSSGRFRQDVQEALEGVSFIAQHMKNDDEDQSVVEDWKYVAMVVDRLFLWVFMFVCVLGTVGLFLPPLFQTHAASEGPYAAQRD
Sequence (P32297 whole entry): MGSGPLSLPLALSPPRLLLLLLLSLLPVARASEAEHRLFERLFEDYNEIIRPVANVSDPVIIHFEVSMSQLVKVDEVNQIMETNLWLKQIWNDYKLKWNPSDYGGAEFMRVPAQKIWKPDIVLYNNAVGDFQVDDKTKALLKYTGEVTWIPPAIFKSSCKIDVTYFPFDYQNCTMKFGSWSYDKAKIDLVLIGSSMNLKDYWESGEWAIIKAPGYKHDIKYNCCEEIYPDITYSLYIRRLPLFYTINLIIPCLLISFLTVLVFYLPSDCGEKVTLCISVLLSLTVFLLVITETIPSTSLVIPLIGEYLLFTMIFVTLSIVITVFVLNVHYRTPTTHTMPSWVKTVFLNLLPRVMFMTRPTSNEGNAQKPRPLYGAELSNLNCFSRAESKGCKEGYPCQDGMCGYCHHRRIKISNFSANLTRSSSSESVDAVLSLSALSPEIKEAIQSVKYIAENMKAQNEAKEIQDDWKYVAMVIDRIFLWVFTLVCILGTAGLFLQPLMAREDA

For `O=C(N[C@H]1CN2CCC1CC2)c1ccc(Cl)cc1` [listing 1 of 2 here], the IC50 was at least 60000 nM.

biological target: T1, Serotonin 3 (5-HT3) receptor (Rattus norvegicus, UniProt P35563+Q9JJ16); assay: Inhibition of [3H]GR-65630 binding to 5-hydroxytryptamine 3 receptor from rat brain homogenates
T1 sequence (P35563 whole entry): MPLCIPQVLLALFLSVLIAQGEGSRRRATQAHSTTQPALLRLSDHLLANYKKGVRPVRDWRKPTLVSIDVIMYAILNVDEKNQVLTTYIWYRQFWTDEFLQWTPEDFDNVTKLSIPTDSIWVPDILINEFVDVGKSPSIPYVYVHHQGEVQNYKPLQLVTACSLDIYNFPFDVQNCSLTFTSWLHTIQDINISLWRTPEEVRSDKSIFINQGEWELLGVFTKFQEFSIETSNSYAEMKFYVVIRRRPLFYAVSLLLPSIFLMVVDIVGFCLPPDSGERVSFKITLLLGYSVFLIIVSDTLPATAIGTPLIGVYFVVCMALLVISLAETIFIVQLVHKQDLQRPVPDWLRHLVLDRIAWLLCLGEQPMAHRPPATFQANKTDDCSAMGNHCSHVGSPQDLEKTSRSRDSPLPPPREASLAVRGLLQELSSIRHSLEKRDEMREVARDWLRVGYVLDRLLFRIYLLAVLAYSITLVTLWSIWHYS
T1 sequence (Q9JJ16 whole entry): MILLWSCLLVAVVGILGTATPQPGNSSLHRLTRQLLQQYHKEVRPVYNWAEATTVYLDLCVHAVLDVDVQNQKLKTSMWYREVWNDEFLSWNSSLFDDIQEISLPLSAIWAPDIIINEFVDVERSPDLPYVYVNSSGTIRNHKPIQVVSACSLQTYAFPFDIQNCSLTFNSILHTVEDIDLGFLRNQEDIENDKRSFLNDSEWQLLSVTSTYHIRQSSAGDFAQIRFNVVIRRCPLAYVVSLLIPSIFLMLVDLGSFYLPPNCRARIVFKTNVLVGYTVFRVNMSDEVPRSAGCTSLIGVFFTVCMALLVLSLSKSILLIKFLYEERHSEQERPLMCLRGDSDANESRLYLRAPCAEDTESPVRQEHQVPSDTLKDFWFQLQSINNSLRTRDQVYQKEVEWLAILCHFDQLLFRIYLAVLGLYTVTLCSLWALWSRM

`O=C(N[C@H]1CN2CCC1CC2)c1ccc(Cl)cc1` [listing 1 of 2 here] gave a Ki of 1660 nM.

biological target: Acetylcholine receptor; alpha1/beta1/delta/gamma (Homo sapiens, UniProt P02708+P07510+P11230+Q07001); assay: Antagonistic activity against Nicotinic acetylcholine receptor alpha-1-beta-1-delta-gamma; type: functional
Sequence (P02708 whole entry): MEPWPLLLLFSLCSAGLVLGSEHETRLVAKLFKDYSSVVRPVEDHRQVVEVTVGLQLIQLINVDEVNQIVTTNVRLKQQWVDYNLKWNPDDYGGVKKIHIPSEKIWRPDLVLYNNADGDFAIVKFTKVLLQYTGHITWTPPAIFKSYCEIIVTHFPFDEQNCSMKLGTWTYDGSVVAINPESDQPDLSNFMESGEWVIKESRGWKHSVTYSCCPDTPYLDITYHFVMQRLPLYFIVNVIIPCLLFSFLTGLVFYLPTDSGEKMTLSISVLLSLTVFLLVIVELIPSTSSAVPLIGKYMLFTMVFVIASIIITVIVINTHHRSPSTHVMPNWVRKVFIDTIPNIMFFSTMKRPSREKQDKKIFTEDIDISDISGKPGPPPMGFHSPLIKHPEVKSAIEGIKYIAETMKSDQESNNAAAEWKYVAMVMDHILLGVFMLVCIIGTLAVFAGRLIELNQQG
Sequence (P07510 whole entry): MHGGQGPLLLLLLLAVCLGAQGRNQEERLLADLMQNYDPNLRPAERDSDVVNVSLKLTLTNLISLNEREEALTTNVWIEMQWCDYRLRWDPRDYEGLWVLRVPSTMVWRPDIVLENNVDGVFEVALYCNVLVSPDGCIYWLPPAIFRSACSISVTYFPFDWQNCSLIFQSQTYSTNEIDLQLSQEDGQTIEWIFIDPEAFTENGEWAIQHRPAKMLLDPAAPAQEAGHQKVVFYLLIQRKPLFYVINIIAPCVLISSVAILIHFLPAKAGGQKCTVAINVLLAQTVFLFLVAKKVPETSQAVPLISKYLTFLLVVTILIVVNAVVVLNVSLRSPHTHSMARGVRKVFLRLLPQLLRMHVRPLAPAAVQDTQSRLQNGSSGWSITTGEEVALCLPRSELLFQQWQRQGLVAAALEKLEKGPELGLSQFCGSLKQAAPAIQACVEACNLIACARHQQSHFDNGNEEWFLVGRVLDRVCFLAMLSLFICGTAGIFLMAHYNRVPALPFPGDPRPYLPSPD
Sequence (P11230 whole entry): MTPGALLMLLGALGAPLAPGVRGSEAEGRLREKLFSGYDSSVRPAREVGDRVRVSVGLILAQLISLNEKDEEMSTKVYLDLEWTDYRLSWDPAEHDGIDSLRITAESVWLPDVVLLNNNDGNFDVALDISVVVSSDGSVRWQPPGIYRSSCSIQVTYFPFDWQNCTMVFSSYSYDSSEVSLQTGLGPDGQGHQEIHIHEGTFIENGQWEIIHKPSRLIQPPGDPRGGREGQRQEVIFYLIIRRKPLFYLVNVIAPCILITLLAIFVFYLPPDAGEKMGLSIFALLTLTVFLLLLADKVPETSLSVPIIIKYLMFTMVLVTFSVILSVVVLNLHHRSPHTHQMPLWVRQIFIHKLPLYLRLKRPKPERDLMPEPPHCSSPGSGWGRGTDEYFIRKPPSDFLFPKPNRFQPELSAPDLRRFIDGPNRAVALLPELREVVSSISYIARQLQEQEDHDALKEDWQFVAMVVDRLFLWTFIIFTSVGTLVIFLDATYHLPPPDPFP
Sequence (Q07001 whole entry): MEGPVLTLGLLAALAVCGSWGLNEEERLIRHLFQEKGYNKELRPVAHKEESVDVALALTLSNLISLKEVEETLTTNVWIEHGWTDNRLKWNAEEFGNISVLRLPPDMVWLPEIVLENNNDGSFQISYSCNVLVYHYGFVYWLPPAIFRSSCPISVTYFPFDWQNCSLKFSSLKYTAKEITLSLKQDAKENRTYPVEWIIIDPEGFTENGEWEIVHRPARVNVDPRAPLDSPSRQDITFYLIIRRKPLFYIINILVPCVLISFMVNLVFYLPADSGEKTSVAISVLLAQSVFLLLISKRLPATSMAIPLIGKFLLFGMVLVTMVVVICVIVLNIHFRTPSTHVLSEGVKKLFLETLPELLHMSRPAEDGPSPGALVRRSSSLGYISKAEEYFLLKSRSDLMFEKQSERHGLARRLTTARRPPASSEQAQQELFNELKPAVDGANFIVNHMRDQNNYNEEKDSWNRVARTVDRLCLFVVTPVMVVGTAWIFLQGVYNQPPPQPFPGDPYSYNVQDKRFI

For `O=C(N[C@H]1CN2CCC1CC2)c1ccc(Cl)cc1` [listing 1 of 2 here], the IC50 was at least 60000 nM.

biological target: not listed separately; assay: Agonistic activity against Nicotinic acetylcholine receptor alpha-7 - 5-hydroxytryptamine 3 receptor chimera; type: functional

Going from `O=C(N[C@H]1CN2CCC1CC2)c1cccc(F)c1` to `O=C(N[C@H]1CN2CCC1CC2)c1cccc(Cl)c1`, the EC50 falls from 3300 nM to 1500 nM (2.2-fold). The second is the more potent here.

First: CC(=O)c1ccc(C(=O)N[C@H]2CN3CCC2CC3)cc1
Second: CC(=O)Nc1ccc(C(=O)N[C@H]2CN3CCC2CC3)cc1
The EC50 of the first is lower: 30000 nM for the first, over 100000 nM for the second. The first is the more potent here.

First: O=C(N[C@H]1CN2CCC1CC2)c1ccc(C(F)(F)F)cc1
Second: O=C(N[C@H]1CN2CCC1CC2)c1ccc(F)cc1
The EC50 of the first is higher: over 100000 nM for the first, 506 nM for the second.

First: CC(C)c1ccc(C(=O)N[C@H]2CN3CCC2CC3)cc1
Second: Cc1ccc(C(=O)N[C@H]2CN3CCC2CC3)cc1
The EC50 of the first is higher: over 100000 nM for the first, 324 nM for the second.

First: CCc1ccc(C(=O)N[C@H]2CN3CCC2CC3)cc1
Second: CCCc1ccc(C(=O)N[C@H]2CN3CCC2CC3)cc1
The EC50 of the first is lower: 3760 nM for the first, over 100000 nM for the second.

Going from `O=C(N[C@H]1CN2CCC1CC2)c1ccc(Br)cc1` to `O=C(N[C@H]1CN2CCC1CC2)c1ccc(I)cc1`, the EC50 rises from 206 nM to 494 nM (2.4-fold). The first is the more potent here.

`CSc1ccc(C(=O)N[C@H]2CN3CCC2CC3)cc1` and `O=C(N[C@H]1CN2CCC1CC2)c1ccc(Cl)cc1` [listing 1 of 2 here] are within 1.5-fold of each other in EC50: 164 nM for the first, 154 nM for the second.

First: COc1cccc(C(=O)N[C@H]2CN3CCC2CC3)c1
Second: COc1ccc(C(=O)N[C@H]2CN3CCC2CC3)cc1
The EC50 of the first is 6.1-fold higher: 2200 nM for the first, 360 nM for the second.

First: COc1ccccc1C(=O)N[C@H]1CN2CCC1CC2
Second: O=C(N[C@H]1CN2CCC1CC2)c1ccccc1F
The EC50 of the first is higher: over 100000 nM for the first, 16700 nM for the second. The second is the more potent here.

Going from `O=C(N[C@H]1CN2CCC1CC2)c1ccc([N+](=O)[O-])cc1` to `O=C(N[C@H]1CN2CCC1CC2)c1ccc(Cl)cc1` [PNU-282987], the EC50 falls from 1000 nM to 128 nM (7.8-fold). The second is the more potent here.

Compared with `O=C(N[C@H]1CN2CCC1CC2)c1ccccc1`, `O=C(N[C@H]1CN2CCC1CC2)c1ccc(OCc2ccccc2)cc1` is higher in EC50: 1900 nM for the first, over 100000 nM for the second. The first is the more potent here.

Going from `O=C(N[C@H]1CN2CCC1CC2)c1ccc(SCc2ccccc2)cc1` to `CN(C)c1ccc(C(=O)N[C@H]2CN3CCC2CC3)cc1`, the EC50 falls from 100000 nM to 30000 nM (3.3-fold). The second is the more potent here.

In the case of `CS(=O)(=O)c1ccc(C(=O)N[C@H]2CN3CCC2CC3)cc1`, the EC50 is reported as over 100000 nM.

biological target: Neuronal acetylcholine receptor; alpha4/beta2 (Rattus norvegicus) (UniProt P09483+P12390); assay: Inhibition of [3H]cytisine binding to Nicotinic acetylcholine receptor alpha4-beta2 from rat brain homogenates at 1 uM

`O=C(N[C@H]1CN2CCC1CC2)c1ccc(Cl)cc1` [listing 2 of 2 here] gave an inhibition of 14%.

biological target: T1, Serotonin 3 (5-HT3) receptor; assay: Functional antagonism of rat 5-hydroxytryptamine 3 receptor in cell-based FLIPR assay

Compound `O=C(N[C@H]1CN2CCC1CC2)c1ccc(Cl)cc1` [listing 1 of 2 here] has an IC50 of 4540 nM.

biological target: not listed separately; assay: Antagonistic activity against 5-hydroxytryptamine 3 receptor; type: functional

`O=C(N[C@H]1CN2CCC1CC2)c1cc(Cl)cc2c1OCC2` showed a Ki of 1 nM.

biological target: Neuronal acetylcholine receptor subunit alpha-7 (Rattus norvegicus, UniProt Q05941); assay: Inhibition of methyllycaconitine (MLA) binding to Nicotinic acetylcholine receptor alpha-7 in rat brain homogenates; type: tissue-based
Sequence (Q05941 whole entry): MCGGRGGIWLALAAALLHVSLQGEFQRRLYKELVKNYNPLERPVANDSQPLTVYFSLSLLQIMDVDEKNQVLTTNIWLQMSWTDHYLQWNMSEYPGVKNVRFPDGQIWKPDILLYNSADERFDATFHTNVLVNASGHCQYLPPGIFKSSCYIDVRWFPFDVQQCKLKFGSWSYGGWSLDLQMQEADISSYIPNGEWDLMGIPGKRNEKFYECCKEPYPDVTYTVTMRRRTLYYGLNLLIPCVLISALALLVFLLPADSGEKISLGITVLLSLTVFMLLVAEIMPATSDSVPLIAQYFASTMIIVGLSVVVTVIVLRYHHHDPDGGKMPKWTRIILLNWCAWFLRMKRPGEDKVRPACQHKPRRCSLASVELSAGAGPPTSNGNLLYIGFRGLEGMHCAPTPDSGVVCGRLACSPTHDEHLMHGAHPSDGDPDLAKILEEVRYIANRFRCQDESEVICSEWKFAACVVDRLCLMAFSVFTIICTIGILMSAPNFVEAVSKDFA

With `O=C(N[C@H]1CN2CCC1CC2)c1ccc(Cl)cc1` [listing 1 of 2 here] the Ki was 27 nM.
